Patent US4820834A, “Benzodiazepine analogs” (priority 1987, dated 1989)
Read-outs that look alike come from different tables or passages of the source.

Columns and labels:
[1] = biological target: T1, Gastrin receptor (gastric glands) (Cavia porcellus, UniProt H0VZC5); assay: Gastrin Receptor Binding in Guinea Pig Gastric Glands; parameters: species or system guinea pig (male Hartley); conditions: 25° C., 30 minutes
T1 construct: The washed guinea pig gastric glands prepared as above were resuspended; from tissue; host or cells: guinea pig gastric mucosal glands (male Hartley)
T1 sequence (H0VZC5 1-426): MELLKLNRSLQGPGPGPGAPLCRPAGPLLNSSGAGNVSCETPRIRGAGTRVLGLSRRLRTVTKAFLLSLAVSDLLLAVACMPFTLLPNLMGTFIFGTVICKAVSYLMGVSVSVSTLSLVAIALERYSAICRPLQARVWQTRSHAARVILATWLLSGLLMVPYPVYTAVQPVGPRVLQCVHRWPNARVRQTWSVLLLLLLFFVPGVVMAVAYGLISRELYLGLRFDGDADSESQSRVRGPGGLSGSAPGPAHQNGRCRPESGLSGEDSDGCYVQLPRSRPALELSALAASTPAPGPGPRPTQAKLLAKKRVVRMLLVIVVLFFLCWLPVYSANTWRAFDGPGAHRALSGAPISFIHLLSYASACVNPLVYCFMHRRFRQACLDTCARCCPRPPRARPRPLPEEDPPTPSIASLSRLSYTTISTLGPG

CCK receptor (pancreas) = biological target: T2, CCK receptor (pancreas) (Rattus norvegicus, UniProt P30551); assay: CCK Receptor Binding (Pancreas): inhibition of ^125 I-CCK-33 binding; parameters: species or system Male Sprague-Dawley rats; conditions: rat pancreas membranes, ^125 I-CCK-33, 37° C., 30 minutes
T2 construct: The whole pancreas was dissected free of fat tissue and was homogenized; from tissue; host or cells: rat pancreas membranes (Sprague-Dawley)
T2 sequence (P30551 1-444): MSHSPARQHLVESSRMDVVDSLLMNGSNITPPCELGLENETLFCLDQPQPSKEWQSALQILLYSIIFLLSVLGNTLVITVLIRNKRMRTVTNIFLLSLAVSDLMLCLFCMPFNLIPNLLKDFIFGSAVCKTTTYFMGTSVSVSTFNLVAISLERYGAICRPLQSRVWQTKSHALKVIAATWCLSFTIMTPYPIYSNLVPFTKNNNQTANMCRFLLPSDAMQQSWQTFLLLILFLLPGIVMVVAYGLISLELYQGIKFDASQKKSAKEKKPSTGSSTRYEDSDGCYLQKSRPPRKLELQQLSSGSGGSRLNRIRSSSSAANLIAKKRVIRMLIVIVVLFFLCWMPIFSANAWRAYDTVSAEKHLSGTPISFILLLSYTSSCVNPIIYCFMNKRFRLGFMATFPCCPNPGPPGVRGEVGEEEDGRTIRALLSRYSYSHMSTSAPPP
In short: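 Bound ^125I-CCK-33 was counted in pellets after a 30 min, 37° C incubation followed by centrifugation. Membranes came from male Sprague-Dawley rat pancreas, assayed in Tris HCl pH 7.7 containing DTT, bacitracin, PMSF and o-phenanthroline. For Scatchard analysis, tracer was diluted with rising unlabelled CCK-33.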

[2] = biological target: T3, CCK receptor (brain, cerebral cortex) (Cavia porcellus, UniProt H0VZC5); assay: biochemical; format: binding, Male Hartley guinea pigs; conditions: guinea pig cerebral cortex, ^125 I-CCK-33, 25° C., 2 hours
T3 construct: Cerebral cortex was dissected and used as a receptor source; from tissue; host or cells: guinea pig cerebral cortex membranes (male Hartley)
T3 sequence (H0VZC5 1-426): T1 sequence (H0VZC5 1-426)
In short: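 Binding of [radiolabeled] CCK-33 measured by gamma counting of centrifuged pellets after 2 h at 25°C. Membranes came from guinea pig brain cortex, suspended in 10 mM HEPES, 5 mM MgCl2, 1 mM EGTA, 0.25 mg/ml bacitracin, 0.4% BSA.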

[3] = ^125 I-gastrin, read-out: IC50 ^125 I-Gastrin Gastric Glands
[4] = read-out: IC50 ^125 I-CCK Brain
[5] = read-out: IC50 ^125 I-CCK Pancreas
[6] = IC50 ^125 I-Gastrin Gastric Glands

SMILES	IC50 [1, 3] [nM]	IC50 (CCK receptor (pancreas); IC50 ^125 I-CCK Pancreas) [nM]	IC50 [2, 4] [nM]	IC50 (CCK receptor (pancreas); [5]) [nM]	IC50 ([2]; IC50 ^125 I-CCK Brain) [nM]	IC50 [1, 6] [nM]
CN1C(=O)C(NC(=O)[C@@H](Cc2ccccc2)NC(=O)OC(C)(C)C)N=C(c2ccccc2F)c2ccccc21 (stereo partly drawn) [Example 231, (2-((5-(2-Fluorophenyl)-2,3-dihydro-1-methyl-2-oxo-1H-1,4-benzodiazepin-3-yl)amino)-2-oxo-1-(phenylmethyl)ethyl)-carbamic acid 1,1-dimethylethyl ester]	2900	580	2700			
CN1C(=O)[C@@H](NC(=O)Nc2ccc(Cl)cc2)N=C(c2ccccc2)c2ccccc21 [Example 233]	580			26	410	
CN1C(=O)[C@H](NC(=O)Nc2ccc(Cl)cc2)N=C(c2ccccc2)c2ccccc21 [Example 234, (R)-N-(4-Chlorophenyl)-N'-(2,3-dihydro-1-methyl-2-oxo-5-phenyl-1H-1,4-benzodiazepin-3-yl)-Urea]	12			1100	5.5	
CN1CCN(C(=O)CN2C(=O)C(NC(=O)OCc3ccccc3)N=C(c3ccccc3)c3ccccc32)CC1 (stereo not drawn) [Example 235, (2,3-Dihydro-1-(2-(4-methyl-1-piperazinyl)-2-oxoethyl)-2-oxo-5-phenyl-1H-1,4-benzodiazepin-3-yl)-carbamic acid phenylmethyl ester]	1400	29000	1700			
O=C(Nc1ccc(Cl)cc1)NC1N=C(c2ccccc2)c2ccccc2N(CC(=O)N2CCCC2)C1=O (stereo not drawn) [Example 236, 1-((3-((((4-Chlorophenyl)amino)carbonyl)amino)-2,3-dihydro-2-oxo-5-phenyl-1H-1,4-benzodiazepin-1-yl)acetyl)pyrrolidine]	0.5		0.28	520		
CN1CCN(C(=O)CN2C(=O)C(NC(=O)Nc3ccc(Cl)cc3)N=C(c3ccccc3)c3ccccc32)CC1 (stereo not drawn) [Example 237, 1-((3-((((4-Chlorophenyl)amino)carbonyl)amino)-2,3-dihydro-2-oxo-5-phenyl-1H-1,4-benzodiazepin-1-yl)acetyl)-4-methylpiperazine]	2.6		8	1200		
CN1C(=O)C(NC(=O)c2ccsc2)N=C(c2ccccc2F)c2ccccc21 (stereo not drawn) [Example 238, N-(5-(2-Fluorophenyl)-2,3-dihydro-1-methyl-2-oxo-1H-1,4-benzodiazepin-3-yl)-3-thiophenecarboxamide]				28	26000	11000
CCOC(=O)CN1C(=O)C(NC(=O)Cc2ccc(Cl)cc2)N=C(c2ccccc2)c2ccccc21 (stereo not drawn) [Example 239, 3-(((4-Chlorophenyl)acetyl)amino)-2,3-dihydro-2-oxo-5-phenyl-1H-1,4-benzodiazepine-1-acetic acid ethyl ester]	4.5	1700	38			
O=C(Cc1ccc(Cl)cc1)NC1N=C(c2ccccc2)c2ccccc2NC1=O (stereo not drawn) [Example 240, 4-Chloro-N-(2,3-dihydro-2-oxo-5-phenyl-1,4-benzodiazepin-3-yl)-benzeneacetamide]	7000	1300	2900			
CCOC(=O)C(C)N1C(=O)C(NC(=O)OCc2ccccc2)N=C(c2ccccc2)c2ccccc21 (stereo not drawn) [Example 241, 2,3-Dihydro-alpha-methyl-2-oxo-5-phenyl-3-((phenylmethoxy)carbonyl)amino-1H-1,4-benzodiazepine-1-acetic acid ethyl ester]	950	930	1400			
CCOC(=O)C(C)N1C(=O)C(NC(=O)OCc2ccccc2)N=C(c2ccccc2)c2ccccc21 (stereo not drawn) [Example 242]	870	900	2300			
CC(C(=O)O)N1C(=O)C(NC(=O)OCc2ccccc2)N=C(c2ccccc2)c2ccccc21 (stereo not drawn) [Example 243, 2,3-Dihydro-alpha-methyl-2-oxo-5-phenyl-3-((phenylmethoxy)carbonyl)amino-1H-1,4-benzodiazepine-1-acetic acid]	3600	680	2800			
CCN(CC)C(=O)C(C)N1C(=O)C(NC(=O)OCc2ccccc2)N=C(c2ccccc2)c2ccccc21 (stereo not drawn) [Example 244, (1-(2-(Diethylamino)-1-methyl-2-oxoethyl)-2,3-dihydro-2-oxo-5-phenyl-1H-1,4-benzodiazepin-3-yl)-carbamic acid phenylmethyl ester]	500	950	740			
CN1C(=O)C(NC(=O)Oc2ccc([N+](=O)[O-])cc2)N=C(c2ccccc2F)c2ccccc21 (stereo not drawn) [Example 245, (5-(2-Fluorophenyl)-2,3-dihydro-1-methyl-2-oxo-1H-1,4-benzodiazepin-3-yl)-carbamic acid-4-nitrophenyl ester]		7200			92000	12000
COc1cccc(NC(=O)NC2N=C(c3ccccc3F)c3ccccc3N(C)C2=O)c1 (stereo not drawn) [Example 246, N-(5-(2-Fluorophenyl)-2,3-dihydro-1-methyl-2-oxo-1H-1,4-benzodiazepin-3-yl)-N'-(3-methoxyphenyl)-urea]	2.4	1.9	2			
COc1cccc(NC(=O)NC2N=C(c3ccccc3)c3ccccc3N(C)C2=O)c1 (stereo not drawn) [Example 247, N-(2,3-Dihydro-1-methyl-2-oxo-5-phenyl-1H-1,4-benzodiazepin-3-yl)-N'-(3-methoxyphenyl)-urea]	1.6			6.2	3	
Cc1ccc(S(=O)(=O)NC(=O)NC2N=C(c3ccccc3)c3ccccc3N(C)C2=O)cc1 (stereo not drawn) [Example 248, N-(((2,3-Dihydro-1-methyl-2-oxo-5-phenyl-1H-1,4-benzodiazepin-3-yl)amino)carbonyl)-4-methylbenzenesulfonamide]	2200	20000	5300			
CN1C(=O)C(NC(=O)Nc2ccccc2)N=C(c2ccccc2)c2ccccc21 (stereo not drawn) [Example 250, N-(2,3-Dihydro-1-methyl-2-oxo-5-phenyl-1H-1,4-benzodiazepin-3-yl)-N'-phenylurea]	9		32	8.3		
CN1C(=O)C(NC(=O)NCc2ccccc2)N=C(c2ccccc2)c2ccccc21 (stereo not drawn) [Example 251, N-(2,3-Dihydro-1-methyl-2-oxo-5-phenyl-1H-1,4-benzodiazepin-3-yl)-N'-phenylmethylurea]	420		860	490		
Cc1ccc(NC(=O)NC2N=C(c3ccccc3)c3ccccc3N(C)C2=O)cc1 (stereo not drawn) [Example 252, N-(2,3-Dihydro-1-methyl-2-oxo-5-phenyl-1H-1,4-benzodiazepin-3-yl)-N'-(4-methylphenyl)-urea]				57	6	3.5
COc1ccc(NC(=O)NC2N=C(c3ccccc3)c3ccccc3N(C)C2=O)cc1 (stereo not drawn) [Example 253, N-(2,3-Dihydro-1-methyl-2-oxo-5-phenyl-1H-1,4-benzodiazepin-3-yl)-N'-(4-methoxvphenyl)-urea]		160			20	45
CN1C(=O)C(NC(=O)Nc2ccccc2Cl)N=C(c2ccccc2)c2ccccc21 (stereo not drawn) [Example 254, N-(2-Chlorophenyl)-N'-(2,3-dihydro-1-methyl-2-oxo-5-phenyl-1H-1,4-benzodiazepin-3-yl)-urea]	110	0.9	320			
CN1C(=O)C(NC(=O)Nc2ccc(Br)cc2)N=C(c2ccccc2)c2ccccc21 (stereo not drawn) [Example 255]				130	48	32
